Experimental data published in PMC12040169 (PLOS Biology, 2025).

Experiment: in vitro
Settings: human, hela cells, % viability

| Structure (SMILES) | viability at 28.5 h, 10 µM [%] | viability at 28.5 h, 10 µM (bulk resorufin, single well) [%] |
| --- | --- | --- |
| Cc1cc(C)c(OCC(=O)Nc2ccc3oc(-c4cncc(Br)c4)nc3c2)c(Cl)c1 [CBK266634] | 100 | – |
| N#Cc1ccccc1OCCO [CBK001443] | 97.9 | – |
| O=C(Nc1ccc2c(c1)OCO2)Nc1c(Br)cnc2ncccc12 [CBK105596] | 93.4 | – |
| CC(C)(C)NC(=O)CN1C(=O)N2CCCN=C2c2ccc(Cl)cc21 [CBK284391] | 102 | – |
| CC(=O)Nc1cccc(-c2cncc(NCCc3ccccn3)n2)c1 [CBK065359] | 103 | – |
| CC(C)c1ccc(NS(=O)(=O)c2csc3ccnc(N4CCNCC4)c23)cc1 [CBK042343C] | 95.8 | – |
| OCc1ccccc1-c1cn2ccnc2c(Nc2ccc(N3CCOCC3)cc2)n1 [CBK037956] | 85.8 | – |
| O=[N+]([O-])c1ccc(CN(CCc2ccccc2)Cc2ccccc2)cc1 [CBK261866] | 99.2 | – |
| CN(C)[C@@H]1CN(C(=O)C2CC2)C[C@H]1c1cn(C)c2ccccc12 [CBK282681] | 110 | – |
| NS(=O)(=O)c1ccc(CCNC(=O)c2cc(-c3ccccc3)nc3ccccc23)cc1 [CBK264365] | 96.9 | – |
| CCn1ncc2c1CCCC2NC1CCN(c2ccccc2)C1=O (stereo not shown) [CBK305144] | 93.6 | – |
| O=C(C[C@@H]1O[C@H](CNS(=O)(=O)c2ccccc2)[C@@H](O)[C@H]1O)N1CCc2ccccc21 [CBK288916] | 91.2 | – |
| CC1CN(C(=O)c2ccccc2)CC(C)N1CCCCc1ccc(F)cc1 (stereo not shown) [CBK025019C] | 97.9 | – |
| CC(C)n1nccc1NC(=O)CCn1ccnc1-c1ccccc1 [CBK281536] | 88.3 | – |
| Cc1ccc(-c2ncc(OCCC(C)C)nc2N)cc1C [CBK145145] | 90.5 | – |
| O=C(NC(c1ccc2ccccc2n1)c1cccs1)C1CCNCC1 (stereo not shown) [CBK148331] | 98.9 | – |
| CCC1CCCCN1Cc1c(O)ccc2c(=O)c(Oc3ccc(OC)cc3)c(C(F)(F)F)oc12 (stereo not shown) [CBK263727] | 98.8 | – |
| COc1ccc(C(C)C)cc1-c1cc(Nc2cc(OC)c(OC)c(OC)c2)n2nccc2n1 [CBK037746] | 103 | – |
| O=C(O)CSc1nnc(-c2sc3ccccc3c2Cl)n1-c1ccccc1 [CBK263830] | 92.9 | – |
| O=C(O)/C=N/NC(=O)c1ccco1 [CBK260923] | 89.5 | – |
| CSc1ccc(NS(=O)(=O)c2ccc(NC(C)=O)c(Cl)c2)cc1 [CBK043566] | 108 | – |
| c1ccc(C(NCc2cnc(C3CCC3)s2)C2CCCC2)nc1 (stereo not shown) [CBK304022] | 88.6 | – |

| Structure (SMILES) | viability at 28.5 h, 10 µM [%] | viability at 28.5 h, 10 µM (bulk resorufin, single well) [%] |
| --- | --- | --- |
| O=C(O)C1C2C=CC(O2)C1C(=O)NCCCc1ccccc1 (stereo not shown) [CBK286982] | 93.3 | – |
| O=C(Nc1ccc(NC(=O)c2ccco2)cc1)c1ccc(N2CCOCC2)c([N+](=O)[O-])c1 [CBK268739] | 95.2 | – |
| CCNC(=O)N[C@@H]1C=C[C@@H](c2c(C)nn(CCC#N)c2C)C1 [CBK289171] | 111 | – |
| O=C(NCc1ccc(Cl)cc1)C1CCCN1c1nc(O)cc(C(F)(F)F)n1 (stereo not shown) [CBK003706] | 115 | – |
| Cc1[nH]c2c(C)cccc2c1CC(=O)N(C)CCN(C)C [CBK282724] | 82.6 | – |
| C[C@]12CN(C(=O)C3CC3)C[C@H]1NC(=O)c1ccccc1C2=O [CBK281660] | 102 | – |
| O=C(O)c1ccc(N(Cc2ccccc2)S(=O)(=O)c2ccccc2)cc1 [CBK265375N] | 92.8 | – |
| O=C1COc2ccccc2C/C=C/CC2(CCN(C(=O)CCn3ccnc3)CC2)CN1 [CBK292131] | 102 | – |
| Cc1cnn(C2CCCN(C(=O)CCCc3cccs3)C2)c1 (stereo not shown) [CBK304168] | 96.3 | – |
| O[C@@H]1C[C@@H](c2nc(-c3ccc(F)cc3)no2)N(Cc2ncc[nH]2)C1 [CBK288849] | 121 | – |
| COC(=O)Nc1ncc(CN2CCCCC2)s1 [CBK268208] | 111 | – |
| CCC(C)(C)c1ccc(S(=O)(=O)NCC2CC2)cc1 [CBK044994] | 93 | – |
| NS(=O)(=O)c1ccc(CCNC(=O)c2ccc([N+](=O)[O-])cc2)cc1 [CBK263773] | 104 | – |
| COc1ccc(CCN(C)C(=O)CCCc2cc3ccccc3[nH]2)cc1OC [CBK051152] | 93.7 | – |
| Cc1ccccc1NS(=O)(=O)c1ccc(OCC(=O)N2CCN(C)CC2)cc1 [CBK267948] | 88.4 | – |
| Cc1cc(O)cc(C2CCCN(C(=O)c3ccc(F)c(F)c3)C2)n1 (stereo not shown) [CBK283406] | 105 | – |
| O=C(Nc1ccc(F)cc1F)Nc1cc(Cl)sc1Cl [CBK019967] | 102 | – |
| O=C(O)C1(NCc2ccccc2Cl)CCCCC1 [CBK287269] | 78.9 | – |
| CN1CC[C@H](c2nc3ncccc3[nH]2)C1 [CBK289384] | 76.8 | – |
| COC(=O)c1ccc(-n2cccn2)c(C#Cc2cccnc2)c1 [CBK284525] | 95.2 | – |
| O=C(Cc1ccccc1F)N1CCC(c2n[nH]c3ncccc23)CC1 [CBK284908] | 89.6 | – |
| O=C(Nc1nnc[nH]1)c1ccccc1CCc1ccccc1 [CBK268616] | 95.9 | – |

| Structure (SMILES) | viability at 28.5 h, 10 µM [%] | viability at 28.5 h, 10 µM (bulk resorufin, single well) [%] |
| --- | --- | --- |
| O=C(O)COCC(=O)N1C[C@@H]2OCC(=O)N(Cc3ccccc3)[C@@H]2C1 [CBK289652] | 101 | – |
| O=C(O)c1ccccc1C1Nc2ccccc2S(=O)(=O)N1Cc1ccccc1 (stereo not shown) [CBK286587] | 107 | – |
| Cc1ncc(CN(C)C(=O)Nc2cccc(C(=O)N3CCOCC3)c2)s1 [CBK305984] | 92.2 | – |
| Cc1nc2c(-c3cccs3)c(C)nn2c(O)c1C [CBK283728] | 99.9 | – |
| Cc1nn(C)c(Cl)c1S(=O)(=O)N1CCN(C)CC1 [CBK062426] | 106 | – |
| Cn1ccc(CN2CCOC(c3nc(C(C)(C)C)n[nH]3)C2)cc1=O (stereo not shown) [CBK304495] | 84.5 | – |
| Cc1ccc2c(c1)CCCN2C(=O)c1cccnc1NCc1ccc2c(c1)OCO2 [CBK160113] | 94.5 | – |
| CCOC(=O)N1CCC2(CC1)Oc1ccc(-c3ccc(OC)cc3OC)cc1O2 [CBK091467] | – | 99.7 |
| COc1ccc2c(c1)CCc1sc(NS(=O)(=O)c3cccc(Cl)c3C)nc1-2 [CBK200033] | 84.3 | – |
| CCC1CCCCN1C(=O)c1cccs1 (stereo not shown) [CBK074214] | 104 | – |
| O=C(CCC(=O)c1ccc2c(c1)OCCO2)OCC(=O)c1ccc(F)cc1 [CBK264679] | 103 | – |
| CS(=O)(=O)c1ccc(-c2c[nH]c([C@@H]3COCCN3Cc3ccccc3)n2)cc1 [CBK289300] | 83.1 | – |
| CC1CN(S(=O)(=O)c2ccc3c(c2)C(=O)c2cc(S(=O)(=O)N4CC(C)OC(C)C4)ccc2-3)CC(C)O1 (stereo not shown) [CBK263355] | 101 | – |
| CN(C)S(=O)(=O)c1ccc(C(=O)C2=C(O)C(=O)N(Cc3cccnc3)C2c2ccc(F)cc2)cc1 (stereo not shown) [CBK264715] | 94 | – |
| CCc1nc(C(C)NC(=O)COc2nn(C)c3nc(C)cc(C)c23)cs1 (stereo not shown) [CBK306024] | 93.3 | – |
| Cc1cccc(=O)n1CCCNc1cc(C2CCOC2)nc(N)n1 (stereo not shown) [CBK307030] | 81.9 | – |
| CCn1c(CN2CCOCC2)nnc1SCC(=O)Nc1cc(C)cc(C)c1 [CBK270258] | 95.9 | – |
| CS(=O)(=O)c1ccc(NC(=S)N2CCN(c3ccc(F)cc3)CC2)cc1 [CBK300507] | 95.3 | – |
| CC(C)Nc1cncc(OCc2ccc(Cl)c(Cl)c2)n1 [CBK115653] | 87.5 | – |
| COCCn1ccnc1C1CCCN(C(=O)COc2ccccc2Cl)C1 (stereo not shown) [CBK307211] | 90.2 | – |
| O=C(NCc1nnc(-c2cccs2)o1)c1cccc(-c2ccc(F)cc2)c1 [CBK286296] | 86.9 | – |
| CC(C)S(=O)(=O)n1c(=O)n(Cc2ccc(S(C)(=O)=O)cc2)c2ccccc21 [CBK106529] | 90.3 | – |

| Structure (SMILES) | viability at 28.5 h, 10 µM [%] | viability at 28.5 h, 10 µM (bulk resorufin, single well) [%] |
| --- | --- | --- |
| O=[N+]([O-])c1cccc(-c2cc(N3CCC(N4CCCCC4)CC3)ncn2)c1 [CBK037710] | 107 | – |
| CCOc1cc(/C=C/c2ccc3cccc(O)c3n2)cc(Br)c1O [CBK264451] | 95 | – |
| COc1ccc(C(=O)C2CCCCC23NCCN3)cc1 (stereo not shown) [CBK023140] | 104 | – |
| Cc1cc(C)c2[nH]c(C(=O)NCc3c(C)n[nH]c3C)c(C)c2c1 [CBK283254] | 87.4 | – |
| CCC(c1nc2ccccc2c(=O)n1CCCn1ccnc1)N1C(=O)c2ccccc2C1=O (stereo not shown) [CBK268560] | 107 | – |
| CCC(C(=O)Nc1ccccc1C(=O)Nc1c(Cl)cccc1Cl)c1ccccc1 (stereo not shown) [CBK266068] | 98.4 | – |
| CC(C)(C)OC(=O)N1CCN(c2ccc(Cl)nn2)CC1 [CBK113381] | 96.2 | – |
| O=C(O)/C=C/C(=O)NNC(=O)c1ccccc1O [CBK261789] | 97.4 | – |
| CCOc1ccsc1C(=O)N1CCc2ccccc2C1 [CBK200339] | 95.1 | – |
| Cc1ccc(Oc2nnnn2-c2ccccc2)c(Br)c1 [CBK002827] | 106 | – |
| c1cncc(CN2CCN(Cc3c[nH]c4ccccc34)CC2)c1 [CBK218281] | 92.2 | – |
| CC1CN(C(C)N2CC(C)OC2=O)C(=O)O1 (stereo not shown) [CBK022981] | 89.8 | – |
| O=C(CC1CCCC1)N1CCC(c2nnc(-c3ccsc3)o2)CC1 [CBK283381] | 106 | – |
| O=C(C1CCC1)N1CCCC1c1nnc(-c2ccsc2)o1 (stereo not shown) [CBK283365] | 101 | – |
| CCCOC(=O)c1c(NC(=O)c2cc(-c3ccccc3)nc3ccccc23)sc2c1CCC(C)C2 (stereo not shown) [CBK262647] | 93.9 | – |
| Fc1ccc(CSc2nc3ccccc3nc2C(F)(F)F)cc1 [CBK107199] | 98.6 | – |
| Cc1cccn2c(=O)c(/C=C3\SC(=S)N(CCCC(=O)O)C3=O)c(N3CCC(C)CC3)nc12 [CBK264793] | 107 | – |
| CN1CCN(c2ccccc2NC(=O)c2cccc3c(Br)cccc23)CC1 [CBK267894] | 92.9 | – |
| COc1ccc(OC)c(-c2nc(Nc3ccccc3C)sc2CC(=O)O)c1 [CBK126811] | 101 | – |
| COC(=O)c1ccccc1NC(=O)CCSc1ccc(Cl)cc1 [CBK263817] | 109 | – |
| O=C(NCCn1cccn1)N1CCC(Cc2ccc(F)cc2)CC1 [CBK304381] | 91.7 | – |
| CN(Cc1ccc(Br)cc1Cl)C(=O)c1cn[nH]c1C1CCNC1 (stereo not shown) [CBK304785] | 93.5 | – |
